{"source": "patent US8192962B2", "about": "“Processes for detecting toxic substances” (Daikin Industries, Ltd., priority 2001, dated 2012)", "test_system": "Energy system protein genes", "experiment": "DNA chip mRNA expression in yeast, energy system protein genes (Table 4)", "type": "cell-based, Saccharomyces cerevisiae S288C", "method_in_brief": "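Expression change after 2 h toxicant exposure (growth-inhibiting, sub-lethal) of log-phase S. cerevisiae S288C at 25° C. Oligo-dT-purified mRNA was labeled with Cy3-dUTP or Cy5-dUTP and hybridized >12 h at 65° C. to a genome-wide chip; ratio of scanned fluorescence to control.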"}
{"substance": "Na2As [(1)]", "values": [{"measurement": "The level of expressed mRNA in the presence of chemical substance/The level of expressed mRNA in the absence of chemical substance", "setting": "yeast gene YAL060W", "result": 1.1}, {"measurement": "The level of expressed mRNA in the presence of chemical substance/The level of expressed mRNA in the absence of chemical substance", "setting": "yeast gene YBL058W, cells incubated two hours with the chemical substance", "result": 0.9}, {"measurement": "The level of expressed mRNA in the presence of chemical substance/The level of expressed mRNA in the absence of chemical substance", "setting": "yeast gene YBL099W, cells incubated two hours with the chemical substance", "result": 0.8}, {"measurement": "The level of expressed mRNA in the presence of chemical substance/The level of expressed mRNA in the absence of chemical substance", "setting": "yeast gene YBR001C, cells incubated two hours with the chemical substance", "result": 0.9}, {"measurement": "The level of expressed mRNA in the presence of chemical substance/The level of expressed mRNA in the absence of chemical substance", "setting": "yeast gene YBR185C, cells incubated two hours with the chemical substance", "result": 1.5}, {"measurement": "The level of expressed mRNA in the presence of chemical substance/The level of expressed mRNA in the absence of chemical substance", "setting": "yeast gene YBR221C, cells incubated two hours with the chemical substance", "result": 0.8}, {"measurement": "The level of expressed mRNA in the presence of chemical substance/The level of expressed mRNA in the absence of chemical substance", "setting": "yeast gene YCL040W", "result": 0.9}, {"measurement": "The level of expressed mRNA in the presence of chemical substance/The level of expressed mRNA in the absence of chemical substance", "setting": "yeast gene YCR012W", "result": 1.2}, {"measurement": "The level of expressed mRNA in the presence of chemical substance/The level of expressed mRNA in the absence of chemical substance", "setting": "yeast gene YCR046C, cells incubated two hours with the chemical substance", "result": 1.0}, {"measurement": "The level of expressed mRNA in the presence of chemical substance/The level of expressed mRNA in the absence of chemical substance", "setting": "yeast gene YCR105W, cells incubated two hours with the chemical substance", "result": 2.2}, {"measurement": "The level of expressed mRNA in the presence of chemical substance/The level of expressed mRNA in the absence of chemical substance", "setting": "yeast gene YDL021W", "result": 5.1}, {"measurement": "The level of expressed mRNA in the presence of chemical substance/The level of expressed mRNA in the absence of chemical substance", "setting": "yeast gene YDL067C, cells incubated two hours with the chemical substance", "result": 1.8}, {"measurement": "The level of expressed mRNA in the presence of chemical substance/The level of expressed mRNA in the absence of chemical substance", "setting": "yeast gene YDL078C, cells incubated two hours with the chemical substance", "result": 0.7}, {"measurement": "The level of expressed mRNA in the presence of chemical substance/The level of expressed mRNA in the absence of chemical substance", "setting": "yeast gene YDL107W, cells incubated two hours with the chemical substance", "result": 1.3}, {"measurement": "The level of expressed mRNA in the presence of chemical substance/The level of expressed mRNA in the absence of chemical substance", "setting": "yeast gene YDL174C", "result": 0.9}, {"measurement": "The level of expressed mRNA in the presence of chemical substance/The level of expressed mRNA in the absence of chemical substance", "setting": "yeast gene YDL181W, cells incubated two hours with the chemical substance", "result": 1.4}, {"measurement": "The level of expressed mRNA in the presence of chemical substance/The level of expressed mRNA in the absence of chemical substance", "setting": "yeast gene YDR001C", "result": 1.0}, {"measurement": "The level of expressed mRNA in the presence of chemical substance/The level of expressed mRNA in the absence of chemical substance", "setting": "yeast gene YDR050C, cells incubated two hours with the chemical substance", "result": 1.9}, {"measurement": "The level of expressed mRNA in the presence of chemical substance/The level of expressed mRNA in the absence of chemical substance", "setting": "yeast gene YDR079W, cells incubated two hours with the chemical substance", "result": 1.3}, {"measurement": "The level of expressed mRNA in the presence of chemical substance/The level of expressed mRNA in the absence of chemical substance", "setting": "yeast gene YDR178W, cells incubated two hours with the chemical substance", "result": 2.0}, {"measurement": "The level of expressed mRNA in the presence of chemical substance/The level of expressed mRNA in the absence of chemical substance", "setting": "yeast gene YDR231C", "result": 1.1}, {"measurement": "The level of expressed mRNA in the presence of chemical substance/The level of expressed mRNA in the absence of chemical substance", "setting": "yeast gene YDR298C, cells incubated two hours with the chemical substance", "result": 1.3}, {"measurement": "The level of expressed mRNA in the presence of chemical substance/The level of expressed mRNA in the absence of chemical substance", "setting": "yeast gene YDR377W, cells incubated two hours with the chemical substance", "result": 1.3}, {"measurement": "The level of expressed mRNA in the presence of chemical substance/The level of expressed mRNA in the absence of chemical substance", "setting": "yeast gene YDR529C, cells incubated two hours with the chemical substance", "result": 1.8}, {"measurement": "The level of expressed mRNA in the presence of chemical substance/The level of expressed mRNA in the absence of chemical substance", "setting": "yeast gene YEL024W, cells incubated two hours with the chemical substance", "result": 1.5}, {"measurement": "The level of expressed mRNA in the presence of chemical substance/The level of expressed mRNA in the absence of chemical substance", "setting": "yeast gene YEL039C, cells incubated two hours with the chemical substance", "result": 1.1}, {"measurement": "The level of expressed mRNA in the presence of chemical substance/The level of expressed mRNA in the absence of chemical substance", "setting": "yeast gene YER178W", "result": 0.8}, {"measurement": "The level of expressed mRNA in the presence of chemical substance/The level of expressed mRNA in the absence of chemical substance", "setting": "yeast gene YFL057C", "result": 20.9}, {"measurement": "The level of expressed mRNA in the presence of chemical substance/The level of expressed mRNA in the absence of chemical substance", "setting": "yeast gene YFR053C", "result": 1.8}, {"measurement": "The level of expressed mRNA in the presence of chemical substance/The level of expressed mRNA in the absence of chemical substance", "setting": "yeast gene YGL018C, cells incubated two hours with the chemical substance", "result": 1.5}, {"measurement": "The level of expressed mRNA in the presence of chemical substance/The level of expressed mRNA in the absence of chemical substance", "setting": "yeast gene YGL062W", "result": 0.6}, {"measurement": "The level of expressed mRNA in the presence of chemical substance/The level of expressed mRNA in the absence of chemical substance", "setting": "yeast gene YGL187C, cells incubated two hours with the chemical substance", "result": 1.5}, {"measurement": "The level of expressed mRNA in the presence of chemical substance/The level of expressed mRNA in the absence of chemical substance", "setting": "yeast gene YGL191W, cells incubated two hours with the chemical substance", "result": 2.3}, {"measurement": "The level of expressed mRNA in the presence of chemical substance/The level of expressed mRNA in the absence of chemical substance", "setting": "yeast gene YGL205W, cells incubated two hours with the chemical substance", "result": 1.0}, {"measurement": "The level of expressed mRNA in the presence of chemical substance/The level of expressed mRNA in the absence of chemical substance", "setting": "yeast gene YGL256W, cells incubated two hours with the chemical substance", "result": 0.9}, {"measurement": "The level of expressed mRNA in the presence of chemical substance/The level of expressed mRNA in the absence of chemical substance", "setting": "yeast gene YGR043C", "result": 2.6}, {"measurement": "The level of expressed mRNA in the presence of chemical substance/The level of expressed mRNA in the absence of chemical substance", "setting": "yeast gene YGR062C, cells incubated two hours with the chemical substance, 25° C., YPD medium", "result": 0.9}, {"measurement": "The level of expressed mRNA in the presence of chemical substance/The level of expressed mRNA in the absence of chemical substance", "setting": "yeast gene YGR087C, cells incubated two hours with the chemical substance", "result": 1.0}, {"measurement": "The level of expressed mRNA in the presence of chemical substance/The level of expressed mRNA in the absence of chemical substance", "setting": "yeast gene YGR174C, cells incubated two hours with the chemical substance", "result": 1.1}, {"measurement": "The level of expressed mRNA in the presence of chemical substance/The level of expressed mRNA in the absence of chemical substance", "setting": "yeast gene YGR192C", "result": 1.4}, {"measurement": "The level of expressed mRNA in the presence of chemical substance/The level of expressed mRNA in the absence of chemical substance", "setting": "yeast gene YGR244C", "result": 1.0}, {"measurement": "The level of expressed mRNA in the presence of chemical substance/The level of expressed mRNA in the absence of chemical substance", "setting": "yeast gene YGR254W", "result": 1.2}, {"measurement": "The level of expressed mRNA in the presence of chemical substance/The level of expressed mRNA in the absence of chemical substance", "setting": "yeast gene YHR179W", "result": 3.3}, {"measurement": "The level of expressed mRNA in the presence of chemical substance/The level of expressed mRNA in the absence of chemical substance", "setting": "yeast gene YIL160C", "result": 0.8}, {"measurement": "The level of expressed mRNA in the presence of chemical substance/The level of expressed mRNA in the absence of chemical substance", "setting": "yeast gene YIR031C, cells incubated two hours with the chemical substance", "result": 0.9}, {"measurement": "The level of expressed mRNA in the presence of chemical substance/The level of expressed mRNA in the absence of chemical substance", "setting": "yeast gene YJL052W", "result": 1.6}, {"measurement": "The level of expressed mRNA in the presence of chemical substance/The level of expressed mRNA in the absence of chemical substance", "setting": "yeast gene YJL121C, cells incubated two hours with the chemical substance", "result": 1.0}, {"measurement": "The level of expressed mRNA in the presence of chemical substance/The level of expressed mRNA in the absence of chemical substance", "setting": "yeast gene YJL166W, cells incubated two hours with the chemical substance", "result": 2.1}, {"measurement": "The level of expressed mRNA in the presence of chemical substance/The level of expressed mRNA in the absence of chemical substance", "setting": "yeast gene YJL216C, cells incubated two hours with the chemical substance", "result": 1.1}, {"measurement": "The level of expressed mRNA in the presence of chemical substance/The level of expressed mRNA in the absence of chemical substance", "setting": "yeast gene YJR009C", "result": 1.1}]}
